Active and inactive are the calls of the source. The calls are words filed in the database; no cut-off is given here.
What was measured:
[1] = tested on: Cell membrane; assay: Induction of membrane permeabilization in Escherichia coli CCM 3954 assessed as propidium iodide influx measured after 80 mins by spectrofluorometer method; details: dose 2.5-5 mg/L, DDE = dose-dependent effect
[2] = tested on: Lipid bilayer; assay: Induction of membrane disruption of bacterial inner membrane mimic DOPE/DOPG (2:1) large unilamellar vesicles assessed as carboxyfluorescein leakage at 2.5 mg/L measured after 90 mins by spectrofluorometer analysis
[3] = tested on: Staphylococcus epidermidis; assay: Antibacterial activity against Staphylococcus epidermidis CCM 7221 assessed as inhibition of bacterial growth incubated for 24 hrs by microdilution assay; assay type: functional
[4] = Gradient chromatographic hydrophobicity index of the compound at pH 3.7 by HPLC analysis; assay type: ADME
[5] = tested on: Escherichia coli; assay: Antibacterial activity against multidrug-resistant Escherichia coli CE5556 expressing CTX-M-15 assessed as reduction in microbial growth incubated for 24 hrs by microdilution assay; assay type: functional
[6] = tested on: Enterococcus faecium; assay: Antibacterial activity against vancomycin resistant Enterococcus faecium 419/ANA assessed as reduction in microbial growth incubated for 24 hrs by microdilution assay; assay type: functional
[7] = tested on: Pseudomonas aeruginosa; assay: Antibacterial activity against multidrug-resistant Pseudomonas aeruginosa assessed as reduction in microbial growth incubated for 24 hrs by microdilution assay; assay type: functional
[8] = tested on: Staphylococcus aureus; assay: Antibacterial activity against Staphylococcus aureus ATCC 29213 = CCM 4223 assessed as inhibition of bacterial growth incubated for 24 hrs by microdilution assay; assay type: functional
[9] = tested on: Escherichia coli; assay: Antibacterial activity against Escherichia coli ATCC 25922 = CCM 3954 assessed as inhibition of bacterial growth incubated for 24 hrs by microdilution assay; assay type: functional
[10] = tested on: Pseudomonas aeruginosa; assay: Antibacterial activity against Pseudomonas aeruginosa ATCC 27853 = CCM 3955 assessed as inhibition of bacterial growth incubated for 24 hrs by microdilution assay; assay type: functional
[11] = tested on: Lipid bilayer; assay: Induction of membrane disruption of […] membrane mimic DOPC/DOPE (2:1) large unilamellar vesicles assessed as carboxyfluorescein leakage at 2.5 mg/L measured after 90 mins by spectrofluorometer analysis
[12] = tested on: Enterococcus faecalis; assay: Antibacterial activity against Enterococcus faecalis ATCC 29212 = CCM 4224 assessed as inhibition of bacterial growth incubated for 24 hrs by microdilution assay; assay type: functional
[13] = Hemolytic activity in human RBC assessed as haemoglobin release measured after 3 hr; assay type: toxicity, cell-based, Erythrocyte; details: red blood cells (erythrocytes)
[14] = tested on: Escherichia coli; assay: Antibacterial activity against Escherichia coli ATCC 25922 = CCM 3954 assessed as inhibition of bacterial growth incubated for 24 hrs in presence of BSA by microdilution assay; assay type: functional
[15] = tested on: Cell membrane; assay: Induction of plasma membrane depolarization in Escherichia coli CCM 3954 assessed as increase in fluorescence intensity at 2.5 mg/L measured after 80 seconds by DiSC3-5 dye based spectrofluorometer method; assay type: cell membranes; details: time 80.0 sec
[16] = tested on: Staphylococcus aureus; assay: Antibacterial activity against Staphylococcus aureus ATCC 29213 = CCM 4223 assessed as inhibition of bacterial growth incubated for 24 hrs in presence of BSA by microdilution assay; assay type: functional
[17] = tested on: Staphylococcus aureus; assay: Antibacterial activity against methicillin resistant Staphylococcus aureus 4591/A assessed as reduction in microbial growth incubated for 24 hrs by microdilution assay; assay type: functional
[18] = Toxicity in rabbit assessed as maximum tolerated dose administered orally; parameters: species or system Oryctolagus cuniculus; details: in vivo, route po
[19] = tested on: Staphylococcus aureus; assay: Antibacterial activity against wild type Staphylococcus aureus 4557/A assessed as reduction in microbial growth incubated for 24 hrs by microdilution assay; assay type: functional
[20] = tested on: Staphylococcus aureus; assay: Bactericidal activity against Staphylococcus aureus CCM 4223 assessed as reduction in viable cell count measured after 24 hrs by Time kill assay; assay type: functional, organism-based; details: DDE = dose-dependent effect
[21] = tested on: Staphylococcus aureus; assay: Antibacterial activity against […] Staphylococcus aureus 4463/A assessed as reduction in microbial growth incubated for 24 hrs by microdilution assay; assay type: functional
[22] = tested on: Staphylococcus aureus; assay: Antibacterial activity against wild type Staphylococcus aureus 4482/A assessed as reduction in microbial growth incubated for 24 hrs by microdilution assay; assay type: functional
[23] = tested on: Staphylococcus aureus; assay: Antibacterial activity against wild type Staphylococcus aureus 77/CF assessed as reduction in microbial growth incubated for 24 hrs by microdilution assay; assay type: functional
[24] = tested on: Staphylococcus aureus; assay: Antibacterial activity against wild type Staphylococcus aureus 4717/B assessed as reduction in microbial growth incubated for 24 hrs by microdilution assay; assay type: functional
[25] = tested on: Staphylococcus aureus; assay: Antibacterial activity against wild type Staphylococcus aureus 78/CF assessed as reduction in microbial growth incubated for 24 hrs by microdilution assay; assay type: functional
[26] = tested on: Staphylococcus aureus; assay: Antibacterial activity against wild type Staphylococcus aureus 4904/C assessed as reduction in microbial growth incubated for 24 hrs by microdilution assay; assay type: functional
[27] = tested on: Staphylococcus aureus; assay: Antibacterial activity against wild type Staphylococcus aureus 4968/C assessed as reduction in microbial growth incubated for 24 hrs by microdilution assay; assay type: functional
[28] = tested on: Cell membrane; assay: Induction of cell envelope damage in Staphylococcus aureus assessed as membranous nanotubes extrude from dying/dead cells at 8 mg/L measured after 8 hrs by scanning electron microscope analysis
[29] = Toxicity in human cornea epidermis model assessed as tissue viability pretreated for 1 hr and measured after 42 hrs by MTT assay relative to control; assay type: tissue-based; details: read-out: Activity
[30] = tested on: Staphylococcus aureus; assay: Antibacterial activity against wild type Staphylococcus aureus 4504/A assessed as reduction in microbial growth incubated for 24 hrs by microdilution assay; assay type: functional
[31] = tested on: Staphylococcus aureus; assay: microbe, parasite or virus in culture; details: 4880/C, 24 h
Description: Antibacterial activity against wild type Staphylococcus aureus 4880/C assessed as reduction in microbial growth incubated for 24 hrs by microdilution assay

[32] = Toxicity in human cornea epidermis model assessed as eye irritation incubated for 42 hrs; assay type: tissue-based
[33] = tested on: Escherichia coli; assay: Bactericidal activity against Escherichia coli CCM 3954 assessed as reduction in viable cell count measured after 24 hrs by Time kill assay; assay type: functional, organism-based; details: dose 2-8 mg/L, DDE = dose-dependent effect
[34] = tested on: Staphylococcus aureus; assay: Antibacterial activity against wild type Staphylococcus aureus 4788/B assessed as reduction in microbial growth incubated for 24 hrs by microdilution assay; assay type: functional
[35] = tested on: Cell membrane; assay: Induction of cell envelope damage in Staphylococcus aureus assessed as tubular structure at 8 mg/L measured after 8 hrs by scanning electron microscope analysis
[36] = tested on: Staphylococcus aureus; assay: Antibacterial activity against wild type Staphylococcus aureus 4515/A assessed as reduction in microbial growth incubated for 24 hrs by microdilution assay; assay type: functional
[37] = tested on: Staphylococcus aureus; assay: Antibacterial activity against wild type Staphylococcus aureus 4561/A assessed as reduction in microbial growth incubated for 24 hrs by microdilution assay; assay type: functional
[38] = Toxicity in rabbit assessed as eye irritation at 100 mg/L measured at 1 to 168 hrs; parameters: species or system Oryctolagus cuniculus; details: in vivo, topical_or_ocular, time 1-168 hrs
[39] = tested on: Staphylococcus aureus; assay: microbe, parasite or virus in culture; details: 5017/C, 24 h
Description: Antibacterial activity against wild type Staphylococcus aureus 5017/C assessed as reduction in microbial growth incubated for 24 hrs by microdilution assay

[40] = tested on: Staphylococcus aureus; assay: Antibacterial activity against wild type Staphylococcus aureus 4679/B assessed as reduction in microbial growth incubated for 24 hrs by microdilution assay; assay type: functional
[41] = tested on: Staphylococcus aureus; assay: Antibacterial activity against wild type Staphylococcus aureus 4740/B assessed as reduction in microbial growth incubated for 24 hrs by microdilution assay; assay type: functional
[42] = Toxicity in rabbit assessed as maximum tolerated dose administered subcutaneously; parameters: species or system Oryctolagus cuniculus; details: in vivo, route sc
[43] = tested on: Staphylococcus aureus; assay: Antibacterial activity against wild type Staphylococcus aureus 4502/A assessed as reduction in microbial growth incubated for 24 hrs by microdilution assay; assay type: functional
[44] = tested on: Staphylococcus aureus; assay: microbe, parasite or virus in culture; details: 4862/C, 24 h
Description: Antibacterial activity against wild type Staphylococcus aureus 4862/C assessed as reduction in microbial growth incubated for 24 hrs by microdilution assay

[45] = Toxicity in human epidermis model assessed as skin irritation incubated for 42 hrs; assay type: tissue-based
[46] = Cytotoxicity against human HepG2 cells assessed as reduction in cell viability; assay type: toxicity, cell-based
[47] = tested on: Staphylococcus aureus; assay: Antibacterial activity against wild type Staphylococcus aureus 5079/C assessed as reduction in microbial growth incubated for 24 hrs by microdilution assay; assay type: functional
[48] = Toxicity in rabbit assessed as skin irritation at 100 to 200 mg/L after administration bandaged for 4 hrs and measured after 1 to 72 hrs of contact time; parameters: species or system Oryctolagus cuniculus; details: in vivo, topical_or_ocular, dose lower 100 mg/L, time lower 1 hrs, dose upper 200 mg/L, time upper 76 hrs
[49] = tested on: Cell membrane; assay: Induction of cell envelope damage in Staphylococcus aureus assessed as loss of cell integrity at 8 mg/L measured after 8 hrs by scanning electron microscope analysis; assay type: subcellular
[50] = tested on: Staphylococcus aureus; assay: Antibacterial activity against wild type Staphylococcus aureus 4883/C assessed as reduction in microbial growth incubated for 24 hrs by microdilution assay; assay type: functional
[51] = tested on: Staphylococcus aureus; assay: Antibacterial activity against […] Staphylococcus aureus 4461/A assessed as reduction in microbial growth incubated for 24 hrs by microdilution assay; assay type: functional
[52] = tested on: Staphylococcus aureus; assay: Antibacterial activity against […] Staphylococcus aureus 4460/A assessed as reduction in microbial growth incubated for 24 hrs by microdilution assay; assay type: functional
[53] = tested on: Staphylococcus aureus; assay: Antibacterial activity against wild type Staphylococcus aureus 4738/B assessed as reduction in microbial growth incubated for 24 hrs by microdilution assay; assay type: functional
[54] = tested on: Cell membrane; assay: Induction of cell envelope damage in Staphylococcus aureus assessed as loss of cytoplasmic content at 8 mg/L measured after 8 hrs by scanning electron microscope analysis; assay type: subcellular
[55] = tested on: Staphylococcus aureus; assay: Antibacterial activity against wild type Staphylococcus aureus 4566/A assessed as reduction in microbial growth incubated for 24 hrs by microdilution assay; assay type: functional

## CCCCCCCCOP(=O)(CCN(CCCN)CCCN)OCCCCCCCCCCOP(=O)(CCN(CCCN)CCCN)OCCCCCCCC.Cl.Cl.Cl.Cl.Cl.Cl (stereo not drawn)
[1]
  Activity: Dde
[2]
  Activity: Active
[3]
  MIC: 0.5 µg/mL
[4]
  CHI: 40.6
[5]
  MIC: 1 µg/mL
[6]
  MIC: 1 µg/mL
[7]
  MIC: 1 µg/mL
[8]
  MIC: 0.5 µg/mL
[9]
  MIC: 0.5 µg/mL
[10]
  MIC: 1 µg/mL
[11]
  Activity: Active
[12]
  MIC: 0.5 µg/mL
[13]
  HC50 at 3 h: 6.4 µg/mL
[14]
  MIC: 0.5 µg/mL
[15]
  Activity: Active
[16]
  MIC: 0.125 µg/mL
[17]
  MIC: 3 µg/mL

## CCCCCCCCOP(=O)(CCN(CCCN)CCCN)OCCCCOP(=O)(CCN(CCCN)CCCN)OCCCCCCCC.Cl.Cl.Cl.Cl.Cl.Cl (stereo not drawn)
[18]
  MTD: > 200 mg/kg
[19]
  MIC: 1 µg/mL
[20]
  Activity: Dde
[21]
  MIC: 2 µg/mL
[22]
  MIC: 1 µg/mL
[23]
  MIC: 2 µg/mL
[24]
  MIC: 1 µg/mL
[25]
  MIC: 2 µg/mL
[26]
  MIC: 1 µg/mL
[27]
  MIC: 2 µg/mL
[28]
  Activity: Active
[3]
  MIC: 1 µg/mL
[4]
  CHI: 35.3
[29]
  viability at 42 h: > 60%
[30]
  MIC: 2 µg/mL
[31]
  MIC: 1 µg/mL
[32]
  Activity: Non-Toxic
[33]
  Activity: Dde
[34]
  MIC: 1 µg/mL
[35]
  Activity: Active
[36]
  MIC: 1 µg/mL
[37]
  MIC: 2 µg/mL
[38]
  Activity: Non-Toxic
[5]
  MIC: 2 µg/mL
[39]
  MIC: 1 µg/mL
[6]
  MIC: 64 µg/mL
[7]
  MIC: 4 µg/mL
[40]
  MIC: 2 µg/mL
[8]
  MIC: 2 µg/mL
[41]
  MIC: 1 µg/mL
[9]
  MIC: 2 µg/mL
[42]
  MTD: > 15 mg/kg
[43]
  MIC: 2 µg/mL
[10]
  MIC: 4 µg/mL
[44]
  MIC: 1 µg/mL
[12]
  MIC: 4 µg/mL
[45]
  Activity: Non-Toxic
[46]
  CC50: 95.9 µM
[47]
  MIC: 1 µg/mL
[13]
  HC50 at 3 h: 263 µg/mL
[48]
  Activity: Non-Toxic
[49]
  Activity: Active
[14]
  MIC: 1 µg/mL
[50]
  MIC: 1 µg/mL
[51]
  MIC: 2 µg/mL
[52]
  MIC: 1 µg/mL
[53]
  MIC: 1 µg/mL
[54]
  Activity: Active
[16]
  MIC: 2 µg/mL
[55]
  MIC: 1 µg/mL
[17]
  MIC: 2 µg/mL

— ChEMBL document CHEMBL5120927, “LEGO-Lipophosphonoxins: A Novel Approach in Designing Membrane Targeting Antimicrobials” (J Med Chem, 2022)
